According to PMC5347165, “Killing of Staphylococcus aureus and Salmonella enteritidis and neutralization of lipopolysaccharide by 17-residue bovine lactoferricins: improved activity of Trp/Ala-containing molecules” (Scientific Reports, 2017):
Several values for one entry are separate records, joined by “and”; a condition that tells them apart may be missing. Identical values can stand only once.

Assays:
[1] = system: E. coli CICC21530 (serotype O157:H7); type: cell-based, Escherichia coli; conditions: microtiter broth dilution, 10^5 CFU/ml, 16‒18 h at 37 °C; representative of three independent experiments
Experimental: (§1) The MIC values of LfcinB17-33 derivatives against bacteria were determined by the microtiter broth dilution method. Briefly, 10 μl of serially diluted aliquots of peptides were added to each well of 96-well microtiter plates, followed by the addition of 90 μl exponential phase bacteria (10^5 CFU/ml) and incubated for 16‒18 h at 37 °C.

[2] = system: E. coli CVCC1515; type: cell-based, Escherichia coli; conditions: microtiter broth dilution, 10^5 CFU/ml, 16‒18 h at 37 °C; representative of three independent experiments
Experimental: as §1

[3] = system: S. enteritidis CVCC3377; type: cell-based, Salmonella enteritidis; conditions: microtiter broth dilution, 10^5 CFU/ml, 16‒18 h at 37 °C; representative of three independent experiments
Experimental: as §1

[4] = system: Bacillus subtilis ATCC6633; type: cell-based; conditions: microtiter broth dilution, 10^5 CFU/ml, 16‒18 h at 37 °C; representative of three independent experiments
Experimental: as §1

[5] = system: Enterococcus faecium CMCC1.2136; type: cell-based; conditions: microtiter broth dilution, 10^5 CFU/ml, 16‒18 h at 37 °C; representative of three independent experiments
Experimental: as §1

[6] = system: Escherichia coli CVCC195; type: cell-based; conditions: microtiter broth dilution, 10^5 CFU/ml, 16‒18 h at 37 °C; representative of three independent experiments
Experimental: as §1

[7] = system: Pseudomonas aeruginosa CICC10419; type: cell-based; conditions: microtiter broth dilution, 10^5 CFU/ml, 16‒18 h at 37 °C; representative of three independent experiments
Experimental: as §1

[8] = system: S. choleraesuis CVCC503; type: cell-based; conditions: microtiter broth dilution, 10^5 CFU/ml, 16‒18 h at 37 °C; representative of three independent experiments
Experimental: as §1

[9] = system: S. pullorum CVCC1802; type: cell-based; conditions: microtiter broth dilution, 10^5 CFU/ml, 16‒18 h at 37 °C; representative of three independent experiments
Experimental: as §1

[10] = system: Salmonella typhimurium ATCC14028; type: cell-based; conditions: microtiter broth dilution, 10^5 CFU/ml, 16‒18 h at 37 °C; representative of three independent experiments
Experimental: as §1

[11] = system: Staphylococcus aureus ATCC43300; type: cell-based; conditions: microtiter broth dilution, 10^5 CFU/ml, 16‒18 h at 37 °C; representative of three independent experiments
Experimental: as §1

[12] = system: Streptococcus suis CVCC606; type: cell-based; conditions: microtiter broth dilution, 10^5 CFU/ml, 16‒18 h at 37 °C; representative of three independent experiments
Experimental: as §1

[13] = system: P. aeruginosa CICC21630; type: cell-based, Pseudomonas aeruginosa; conditions: microtiter broth dilution, 10^5 CFU/ml, 16‒18 h at 37 °C; representative of three independent experiments
Experimental: as §1

[14] = system: S. aureus ATCC25923; type: cell-based, Staphylococcus aureus; conditions: microtiter broth dilution, 10^5 CFU/ml, 16‒18 h at 37 °C; representative of three independent experiments
Experimental: as §1

[15] = system: S. aureus ATCC25923; test: Outer membrane permeabilization, NPN uptake; type: cell-based, Staphylococcus aureus; conditions: 1×, 2× or 4 × MIC; HEPES buffer pH 7.2
Experimental: The effects of Lfcin4 and Lfcin5 on the outer membrane of S. aureus ATCC25923 and S. enteritidis CVCC3377 were determined by measuring the uptake of NPN[44][45]. Mid-log phase cells were washed with sterile normal saline three times and suspended in 5 mM HEPES buffer (pH 7.2, containing 5 mM glucose) to an OD at 600 nm of 0.5. […] The relative fluorescence intensity was measured using an Infinite M200 PRO plate reader. The excitation and emission wavelengths were set at 328 and 438 nm, respectively. Treatment with PBS severed as a negative control, and treatment with ampicillin or colistin was used as a positive control.

[16] = system: S. aureus ATCC25923; test: Inner membrane permeabilization, PI staining by flow cytometry; type: cell-based, Staphylococcus aureus; conditions: 1 × MIC, 37 °C, untreated 0.04%
Experimental: (§2) The permeabilization of the inner membrane was performed according to a previous report by Li et al. with slight modifications. […] Bacterial cells were then washed twice with PBS, fixed with 50 μg/ml PI and analyzed using a BD FACS Calibur Flow Cytometer (Franklin Lakes, New Jersey, USA). Data were analyzed using CellQuest Pro software (BD, USA).

[17] = system: S. enteritidis CVCC3377; test: as above; type: cell-based, Salmonella enteritidis; conditions: 1 × MIC, 37 °C, untreated 0.76%
Experimental: as §2

[18] = system: genomic DNA from S. aureus ATCC25923; test: Gel retardation (EMSA) of genomic DNA; type: binding, Staphylococcus aureus; conditions: 0.7% agarose gel, 10 min 37 °C; ratios tested 0, 0.5, 1, 2.5, 5, 10 (w/w)
Experimental: (§3) Genomic DNA was extracted from S. aureus ATCC25923, E. coli O157 and S. enteritidis CVCC3377 using a TIANamp Bacteria DNA Kit (TIANGEN Biotech Co., Ltd., Beijing). The gel retardation experiment was performed by mixing the bacterial DNA with different concentrations of Lfcin4 or Lfcin5 in 20 μl binding buffer (10 mM Tris-HCl, pH 8.0, 5% glycerol, 1 mM dithiothreitol, 1 mM EDTA, 20 mM KCl, and 50 μg/ml bovine serum albumin)[41]. The ratios of peptide to DNA were 0, 0.5, 1, 2.5, 5.0, and 10.0 (w/w). The mixtures were incubated for 10 min at 37 °C and then subjected to electrophoresis on a 0.7% agarose gel.

[19] = system: genomic DNA from S. enteritidis CVCC3377; test: Gel retardation (EMSA) of genomic DNA; type: binding, Salmonella enteritidis; conditions: 0.7% agarose gel, 10 min 37 °C; ratios tested 0, 0.5, 1, 2.5, 5, 10 (w/w)
Experimental: as §3

[20] = system: S. aureus ATCC25923; test: Macromolecular synthesis, incorporation of radioactive precursors; type: cell-based, Staphylococcus aureus; conditions: 1 × MIC; 3H-glucosamine
Experimental: The effects of each peptide on the incorporation of L-[methyl-^3H] thymidine, [5-^3H] uridine, D-[6-^3H(N)] glucosamine hydrochloride, and L-[3,4,5-^3H] leucine into DNA, RNA, peptidoglycans, and proteins were investigated in S. aureus ATCC25923. […] Radioactive precursors of ^3H-thymidine, ^3H-uridine, ^3H-leucine, and ^3H-glucosamine (40 μCi/ml) were added to cultures to measure macromolecular synthesis and incubated for 20 min at 37 °C. Cold 25% trichloroacetic acid (TCA) was added to the mixture and placed on ice for 30 min. After centrifugation, pellets were washed twice with 25% TCA, dried and counted with scintillation fluid on a MicroBeta 1450 scintillation counter (Perkin Elmer)[46].

[21] = system: LPS-induced lung injury; test: LPS-induced lung injury, histology; type: in vivo, mouse (C57BL/6); conditions: 15 mg/kg i.p. 30 min after LPS 10 mg/kg
Experimental: Thirty minutes after intraperitoneal injection of LPS (10 mg/kg of body weight in 0.2 ml), mice were intraperitoneally injected with Lfcin4, Lfcin5 or colistin (15 mg/kg of body weight in 0.2 ml). Mice were sacrificed at 8 h, 1 d, 4 d, and 7 d after LPS injection. The lungs were removed, washed with PBS and fixed in 4% paraformaldehyde at 4 °C for 24 h. After they were washed with PBS and dehydrated with a graded series of ethanol (75‒95%), the tissues were infiltrated with xylene and embedded in paraffin wax. Sections were cut, stained with hematoxylin and eosin and examined under a light microscope. Mice injected with LPS or only PBS served as positive or mock-treated controls, respectively.

## FKAWRWAWRMKKLAAPS [Lfcin4, 17-residue LfcinB17-31 derivative, Trp/Ala-containing]
[1]
  MIC: 15 μM and 32 μg/ml
[2]
  MIC: 15 μM and 32 μg/ml
[3]
  MIC: 1.8 μM and 4 μg/ml
[4]
  MIC: 15 μM and 32 μg/ml
[5]
  MIC: 7.3 μM and 16 μg/ml
[6]
  MIC: 30 μM and 64 μg/ml
[7]
  MIC: >58 μM and >128 μg/ml
[8]
  MIC: 58 μM and 128 μg/ml
[9]
  MIC: >58 μM and >128 μg/ml
[10]
  MIC: 58 μM and 128 μg/ml
[11]
  MIC: 29 μM and 64 μg/ml
[12]
  MIC: 58 μM and 128 μg/ml
[13]
  MIC: >58 μM and >128 μg/ml
[14]
  MIC: 3.66 μM and 8 μg/ml
[15]
  time to permeabilization of the outer membrane (NPN fluorescence): ≤ 1 min
[16]; 30 min
  PI-positive cells: 44.20%
[16]; 120 min
  PI-positive cells: 50.10%
[17]; 30 min
  PI-positive cells: 2.94%
[17]; 120 min
  PI-positive cells: 18.90%
[18]
  peptide:DNA mass ratio at which migration of genomic DNA is impaired: over 1.0 mass ratio (peptide:DNA)
[19]
  peptide:DNA mass ratio at which migration of genomic DNA is impaired: greater than 2.5 mass ratio (peptide:DNA)
[20]
  label incorporation into peptidoglycans (in words): increased label incorporation into peptidoglycans
[21]; 8 h‒4 d
  lung histology (in words): apparently less lung damage
[21]; 7 d
  lung histology (in words): no obvious pathological differences
